Source: patent US10894775B2, “Piperidine derivatives as liver X receptor beta agonists, compositions, and their use” (Merck Sharp & Dohme Corp., priority 2016, dated 2021)
pEC50: −log10 of the molar value. Where two headings read alike, the source gives them in different places.

Tests used:
[1] = target: T1, glutathione-S-transferase (GST) tagged LXRbeta LBD (ligand binding domain) (Homo sapiens, UniProt P55055); assay: LanthaScreen TR-FRET Liver X Receptor Coactivator Assay, LXR beta; type: biochemical; details: for Emax: read-out: LXR beta actiivty at max dose (%); for pEC50: read-out: LXR beta IP
T1 construct: purchased Invitrogen pv4658.pps
T1 sequence (P55055 222-460 limits assumed): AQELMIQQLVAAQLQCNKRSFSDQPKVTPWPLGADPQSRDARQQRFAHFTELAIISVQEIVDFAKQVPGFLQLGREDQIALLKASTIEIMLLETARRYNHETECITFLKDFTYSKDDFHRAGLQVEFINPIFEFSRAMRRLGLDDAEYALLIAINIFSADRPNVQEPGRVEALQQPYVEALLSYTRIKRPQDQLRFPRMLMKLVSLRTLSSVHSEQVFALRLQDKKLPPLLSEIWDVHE
Experimental: (§1) While running the LanthaScreen™ TR-FRET Liver X Receptor Coactivator Assay, LXR alpha-LBD or LXR beta-LBD was added to ligand test compounds followed by addition of a mixture of a fluorescein-labelled coactivator peptide and terbium-conjugated anti-GST antibody. After an incubation period at room temperature, TR-FRET (time-resolved fluorescence resonance energy transfer) was measured using a filter-based instrument capable of TR-FRET, e.g. PerkinElmer Envision.

[2] = target: T2, glutathione-S-transferase (GST) tagged LXRalpha LBD (ligand binding domain) (Homo sapiens, UniProt Q13133); assay: LanthaScreen TR-FRET Liver X Receptor Coactivator Assay, LXR alpha; type: biochemical; details: for Emax: read-out: LXR alpha actiivty at max dose (%); for pEC50 / LXR alpha IP (nM) / EC50: potency (Inflection Point) of compound-induced co-activator recruitment, TR-FRET; for pEC50: read-out: LXR alpha IP; for EC50: LXR alpha IP (nM)
T2 construct: purchased Invitrogen pv4655
T2 sequence (Q13133 209-447 limits assumed): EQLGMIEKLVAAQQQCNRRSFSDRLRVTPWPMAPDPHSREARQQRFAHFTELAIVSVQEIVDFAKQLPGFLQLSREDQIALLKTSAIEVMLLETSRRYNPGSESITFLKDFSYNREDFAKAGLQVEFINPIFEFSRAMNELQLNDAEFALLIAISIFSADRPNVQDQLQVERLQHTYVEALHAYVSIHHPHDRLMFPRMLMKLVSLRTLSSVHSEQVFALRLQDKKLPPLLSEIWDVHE
Experimental: as §1

[3] = efficacy (Emax) in relation to reference dual agonist T0901317
[4] = potency (Inflection Point) of compound-induced co-activator recruitment, TR-FRET

Emax [1, 3]	pEC50 [1, 4]	Emax [2, 3]	pEC50 [2]	LXR alpha IP (nM) [2]	LXR alpha actiivty at max dose (%) [2, 3]	LXR beta actiivty at max dose (%) [1, 3]	Compound	EC50 ([1]; LXR beta IP (nM), potency (Inflection Point) of compound-induced co-activator recruitment, TR-FRET)	Emax [1]	EC50 [2]	Emax [2]
57%	8.22	39%	6.49	–	–	–	CN(C)C(=O)c1ccc(NCCC2CC3(CCN(C(=O)C(O)(c4ccccc4)C(F)(F)F)CC3)C2)cc1Cl (single isomer, unassigned) [Example 13-1, 2-chloro-N,N-dimethyl-4-(2-(7-((R or S)-3,3,3-trifluoro-2-hydroxy-2-phenylpropanoyl)-7-azaspiro[3.5]nonan-2-yl)ethylamino)benzamide]	–	–	–	–
96%	7.24	8%	–	No IP	–	–	CN(C)C(=O)c1ccc(CCCC2CC3(CCN(C(=O)C(O)(c4cccc(OC(F)(F)F)c4)C(F)(F)F)CC3)C2)cc1Cl (single isomer, unassigned) [Example 16-4, 2-chloro-N,N-dimethyl-4-(3-(7-((S or R)-3,3,3-trifluoro-2-hydroxy-2-(3-(trifluoromethoxy)phenyl)propanoyl)-7-azaspiro[3.5]nonan-2-yl)propyl)benzamide]	–	–	–	–
91%	7.17	9%	–	No IP	–	–	CN(C)C(=O)c1ccc(NCCC[C@H]2CC23CCN(C(=O)[C@@](O)(c2ccccc2)C(F)(F)C(F)(F)F)CC3)cc1Cl (single isomer, unassigned) [Example 6-7, 2-chloro-N,N-dimethyl-4-(3-((S or R)-6-((S or R)-3,3,4,4,4-pentafluoro-2-hydroxy-2-phenylbutanoyl)-6-azaspiro[2.5]octan-1-yl)propylamino)benzamide]	–	–	–	–
–	–	–	–	–	–	–	COc1cccc([C@@](O)(C(=O)N2CCC3(CC2)CC(CCCc2ccc(C(=O)N(C)C)c(Cl)c2)C3)C(F)(F)F)c1 (single isomer, unassigned) [Example 16-1, 2-chloro-N,N-dimethyl-4-(3-(7-((R or S)-3,3,3-trifluoro-2-hydroxy-2-(3-methoxyphenyl)propanoyl)-7-azaspiro 13.51 nonan-2-yl)propyl)benzamide]	132 nM	100%	1540 nM	19%
79%	8.05	–	6.63	–	29%	–	CN(C)C(=O)c1ccc(CCCCCC2CCN(C(=O)C(O)(c3ccccc3)C(F)(F)F)CC2)cc1Cl (single isomer, unassigned) [Example 15-8, (R or S)-2-chloro-N,N-dimethyl-4-(5-(1-(3,3,3-trifluoro-2-hydroxy-2-phenylpropanoyl)piperidin-4-yl)pentyl)benzamide]	–	–	–	–
57%	5.70	2%	–	No IP	–	–	CN(C)C(=O)c1ccc(S(=O)(=O)CCCCC2CCN(C(=O)C(C)(C)c3ccccc3)CC2)cc1Cl [Example 22-1, 2-chloro-N,N-dimethyl-4-(4-(1-(2-methyl-2-phenylpropanoyl)piperidin-4-yl)butylsulfonyl)benzamide]	–	–	–	–
60%	7.68	64%	6.06	–	–	–	CNC(=O)c1ccc(NCCC[C@@H]2CC23CCN(C(=O)[C@](O)(C(C)C)C(F)(F)F)CC3)cc1Cl (single isomer, unassigned) [Example 6-9, 2-chloro-4-(3-((R or S)-6-((R or S)-2-hydroxy-3-methyl-2-(trifluoromethyl)butanoyl)-6-azaspiro[2.5]octan-1-yl)propylamino)-N-methylbenzamide]	–	–	–	–
118%	7.57	24%	6.02	–	–	–	COc1cccc([C@@](O)(C(=O)N2CCC([C@H]3C[C@H]3CSc3ccc(C(=O)N(C)C)c(Cl)c3)CC2)C(F)(F)F)c1 (single isomer, unassigned) [Example 23-1, 2-chloro-N,N-dimethyl-4-(((1R,2R or 1S,2S)-2-(1-((R or S)-3,3,3-trifluoro-2-hydroxy-2-(3-methoxyphenyl)propanoyl)piperidin-4-yl)cyclopropyl)methylthio)benzamide]	–	–	–	–
75%	7.85	34%	6.29	–	–	–	CN(C)C(=O)c1ccc(NC[C@H]2C[C@@H]2C2CCN(C(=O)[C@](O)(c3ccccc3)C(F)(F)F)CC2)cc1Cl (single isomer, unassigned) [Example 8-2, 2-chloro-N,N-dimethyl-4-(((1S,2R or 1R,2S)-2-(1-((R or S)-3,3,3-trifluoro-2-hydroxy-2-phenylpropanoyl)piperidin-4-yl)cyclopropyl)methylamino)benzamide]	–	–	–	–
56%	7.85	19%	5.50	–	–	–	CNC(=O)c1ccc(NCCCCC2CCN(C(=O)C(O)(c3cccc(OC4CC4)c3)C(F)(F)F)CC2)cc1Cl (single isomer, unassigned) [Example 1-7, (S or R)-2-chloro-4-(4-(1-(2-(3-cyclopropoxyphenyl)-3,3,3-trifluoro-2-hydroxypropanoyl)piperidin-4-yl)butylamino)-N-methylbenzamide]	–	–	–	–
17%	5.42	0%	–	No IP	–	–	COc1cccc([C@@](O)(C(=O)N2CCC(CCCC(C)Nc3ccc(C(=O)N(C)C)c(Cl)c3)CC2)C(F)(F)F)c1 (single isomer, unassigned) [Example 4-5, 2-chloro-N,N-dimethyl-4-((R or S)-5-(1-((R or S)-3,3,3-trifluoro-2-hydroxy-2-(3-methoxyphenyl)propanoyl)piperidin-4-yl)pentan-2-ylamino)benzamide]	–	–	–	–
–	7.51	–	6.07	–	36%	116%	CN(C)C(=O)c1ccc(CCCCC2CCN(C(=O)C(O)(c3ccccc3)C(F)(F)F)CC2)cc1Cl (single isomer, unassigned) [Example 15-3, (S or R)-2-chloro-N,N-dimethyl-4-(4-(1-(3,3,3-trifluoro-2-hydroxy-2-phenylpropanoyl)piperidin-4-yl)butyl)benzamide]	–	–	–	–
42%	6.74	2%	–	No IP	–	–	CNC(=O)c1ccc(NCCCCC2CCN(C(=O)C3(c4ccccc4)CCCC3)CC2)cc1Cl [Example 1-4, 2-chloro-N-methyl-4-(4-(1-(1-phenylcyclopentanecarbonyl)piperidin-4-yl)butylamino)benzamide]	–	–	–	–
–	6.62	–	–	No IP	4%	84%	CN(C)C(=O)c1ccc(CCCCCC2CCN(C(=O)C(O)(c3ccccc3)C(F)(F)F)CC2)cc1Cl (single isomer, unassigned) [Example 15-9, (S or R)-2-chloro-N,N-dimethyl-4-(5-(1-(3,3,3-trifluoro-2-hydroxy-2-phenylpropanoyl)piperidin-4-yl)pentyl)benzamide]	–	–	–	–
75%	7.80	22%	6.29	–	–	–	COc1cccc(C(O)(C(=O)N2CCC(CCCCCc3ccc(C(=O)N(C)C)c(Cl)c3)CC2)C(F)(F)F)c1 (single isomer, unassigned) [Example 15-5, (R or S)-2-chloro-N,N-dimethyl-4-(5-(1-(3,3,3-trifluoro-2-hydroxy-2-(3-methoxyphenyl)propanoyl)piperidin-4-yl)pentyl)benzamide]	–	–	–	–
62%	7.77	13%	–	No IP	–	–	CNC(=O)c1ccc(NCCCCC2CCN(C(=O)C(O)(c3cccc(OC(F)(F)F)c3)C(F)(F)F)CC2)cc1Cl (single isomer, unassigned) [Example 1-9, (S or R)-2-chloro-N-methyl-4-(4-(1-(3,3,3-trifluoro-2-hydroxy-2-(3-(trifluoromethoxy)phenyl)propanoyl)piperidin-4-yl)butylamino)benzamide]	–	–	–	–

Compound	Emax [1, 3]	pEC50 [1, 4]	Emax [2, 3]	pEC50 [2]	LXR alpha IP (nM) [2]	LXR alpha actiivty at max dose (%) [2, 3]	LXR beta actiivty at max dose (%) [1, 3]	EC50 ([1]; LXR beta IP (nM), potency (Inflection Point) of compound-induced co-activator recruitment, TR-FRET)	Emax [1]	EC50 [2]	Emax [2]
CNC(=O)c1ccc(NCCCCC2CCN(C(=O)C(O)(c3cccc(OC)c3)C(F)(F)F)CC2)cc1Cl (single isomer, unassigned) [Example 1-1, (R or S)-2-chloro-N-methyl-4-(4-(1-(3,3,3-trifluoro-2-hydroxy-2-(3-methoxyphenyl)propanoyl)piperidin-4-yl)butylamino)benzamide]	68%	8.10	–	–	–	–	–	–	–	577 nM	17%
